Tests used:
Format in all cases: functional
DU-145 [1] = experiment: cells; conditions: Homo sapiens
Description: Growth inhibition of human DU145 cells assessed as cell growth at 10 uM by SRB assay

MCF7 [2] = experiment: cells; conditions: Homo sapiens
Description: Growth inhibition of human MCF7 cells assessed as cell growth at 10 uM by SRB assay

HL-60(TB) = experiment: cells; conditions: Homo sapiens
Description: Growth inhibition of human HL-60(TB) cells assessed as drug level required for 50% reduction in net protein increase by SRB assay relative to control

NCI-H226 [3] = experiment: cells; conditions: Homo sapiens
Description: Growth inhibition of human NCI-H226 cells assessed as drug level required for 50% reduction in net protein increase by SRB assay relative to control

SF-295 [4] = experiment: cells; conditions: Homo sapiens
Description: Growth inhibition of human SF295 cells assessed as drug level required for 50% reduction in net protein increase by SRB assay relative to control

SW-620 [5] = experiment: Cytotoxicity against human SW620 cells by SRB assay; conditions: read-out: LC50 (the source's name)
PC-3 = experiment: cells; conditions: Homo sapiens
Description: Growth inhibition of human PC3 cells assessed as cell growth at 10 uM by SRB assay

SW-620 [6] = experiment: cells; conditions: Homo sapiens
Description: Growth inhibition of human SW620 cells assessed as cell growth at 10 uM by SRB assay

M14 [7] = experiment: cells; conditions: Homo sapiens
Description: Growth inhibition of human M14 cells assessed as drug level required for 50% reduction in net protein increase by SRB assay relative to control

KM12 [8] = experiment: Cytotoxicity against human KM12 cells by SRB assay; conditions: read-out: LC50 (the source's name)
HT-29 = experiment: Cytotoxicity against human HT-29 cells by SRB assay; conditions: read-out: LC50 (the source's name)
CCRF-CEM = experiment: cells; conditions: Homo sapiens
Description: Growth inhibition of human CCRF-CEM cells assessed as cell growth at 10 uM by SRB assay

SNB-19 = experiment: cells; conditions: Homo sapiens
Description: Growth inhibition of human SNB19 cells assessed as drug level required for 50% reduction in net protein increase by SRB assay relative to control

UACC-62 = experiment: cells; conditions: Homo sapiens
Description: Growth inhibition of human UACC62 cells assessed as cell growth at 10 uM by SRB assay

SK-OV-3 [9] = experiment: Cytotoxicity against human SKOV3 cells by SRB assay; conditions: read-out: LC50 (the source's name)
SN12C [10] = experiment: cells; conditions: Homo sapiens
Description: Growth inhibition of human SN12C cells assessed as cell growth at 10 uM by SRB assay

OVCAR-4 [11] = experiment: cells; conditions: Homo sapiens
Description: Growth inhibition of human OVCAR4 cells assessed as cell growth at 10 uM by SRB assay

M14 [12] = experiment: cells; conditions: Homo sapiens; remark: listed apart in the source
Description: Growth inhibition of human M14 cells assessed as cell growth at 10 uM by SRB assay

OVCAR-5 = experiment: cells; conditions: Homo sapiens
Description: Growth inhibition of human OVCAR5 cells assessed as drug level required for 50% reduction in net protein increase by SRB assay relative to control

MCF7 [13] = experiment: cells; conditions: Homo sapiens; remark: listed apart in the source
Description: Growth inhibition of human MCF7 cells assessed as drug level required for 50% reduction in net protein increase by SRB assay relative to control

SK-OV-3 [14] = experiment: cells; conditions: Homo sapiens
Description: Growth inhibition of human SKOV3 cells assessed as cell growth at 10 uM by SRB assay

KM12 [15] = experiment: cells; conditions: Homo sapiens
Description: Growth inhibition of human KM12 cells assessed as drug level required for 50% reduction in net protein increase by SRB assay relative to control

SR [16] = experiment: cells; conditions: Homo sapiens
Description: Growth inhibition of human SR cells assessed as drug level required for 50% reduction in net protein increase by SRB assay relative to control

SK-MEL-28 = experiment: cells; conditions: Homo sapiens
Description: Growth inhibition of human SK-MEL-28 cells assessed as cell growth at 10 uM by SRB assay

RXF 393 = experiment: cells; conditions: Homo sapiens
Description: Growth inhibition of human RFX393 cells assessed as cell growth at 10 uM by SRB assay

IGROV-1 [17] = experiment: Cytotoxicity against human IGROV1 cells by SRB assay; conditions: read-out: LC50 (the source's name)
NCI-H23 [18] = experiment: cells; conditions: Homo sapiens
Description: Growth inhibition of human NCI-H23 cells assessed as cell growth at 10 uM by SRB assay

M14 [19] = experiment: Cytotoxicity against human M14 cells by SRB assay; conditions: read-out: LC50 (the source's name)
NCI-H460 = experiment: Cytotoxicity against human NCI-H460 cells by SRB assay; conditions: read-out: LC50 (the source's name)
COLO 205 = experiment: Cytotoxicity against human COLO205 cells by SRB assay; conditions: read-out: LC50 (the source's name)
SF-268 [20] = experiment: cells; conditions: Homo sapiens
Description: Growth inhibition of human SF268 cells assessed as cell growth at 10 uM by SRB assay

IGROV-1 [21] = experiment: cells; conditions: Homo sapiens
Description: Growth inhibition of human IGROV1 cells assessed as drug level required for 50% reduction in net protein increase by SRB assay relative to control

SF-295 [22] = experiment: cells; conditions: Homo sapiens; remark: listed apart in the source
Description: Growth inhibition of human SF295 cells assessed as cell growth at 10 uM by SRB assay

HCC 2998 = experiment: cells; conditions: Homo sapiens
Description: Growth inhibition of human HCC2998 cells assessed as cell growth at 10 uM by SRB assay

SR [23] = experiment: cells; conditions: Homo sapiens; remark: listed apart in the source
Description: Growth inhibition of human SR cells assessed as cell growth at 10 uM by SRB assay

786-0 [24] = experiment: cells; conditions: Homo sapiens, read-out: LC50 (the source's name)
Description: Cytotoxicity against human 786-0 cells by SRB assay

MDA-MB-435 = experiment: cells; conditions: Homo sapiens
Description: Growth inhibition of human MDA-MB-435 cells assessed as cell growth at 10 uM by SRB assay

NCI-H23 [25] = experiment: cells; conditions: Homo sapiens; remark: listed apart in the source
Description: Growth inhibition of human NCI-H23 cells assessed as drug level required for 50% reduction in net protein increase by SRB assay relative to control

HOP-62 = experiment: Cytotoxicity against human HOP62 cells by SRB assay; conditions: read-out: LC50 (the source's name)
786-0 [26] = experiment: cells; conditions: Homo sapiens
Description: Growth inhibition of human 786-0 cells assessed as drug level required for 50% reduction in net protein increase by SRB assay relative to control

HCT-116 [27] = experiment: Cytotoxicity against human HCT116 cells by SRB assay; conditions: read-out: LC50 (the source's name)
RPMI-8226 [28] = experiment: cells; conditions: Homo sapiens
Description: Growth inhibition of human RPMI8226 cells assessed as cell growth at 10 uM by SRB assay

SF-539 = experiment: cells; conditions: Homo sapiens
Description: Growth inhibition of human SF539 cells assessed as cell growth at 10 uM by SRB assay

LOX IMVI = experiment: cells; conditions: Homo sapiens
Description: Growth inhibition of human LOXIMVI cells assessed as cell growth at 10 uM by SRB assay

A498 [29] = experiment: cells; conditions: Homo sapiens
Description: Growth inhibition of human A498 cells assessed as cell growth at 10 uM by SRB assay

cells [30] = conditions: Homo sapiens, CAKI
Description: Growth inhibition of human CAKI cells assessed as cell growth at 10 uM by SRB assay

cells [31] = conditions: Homo sapiens, Hs-578T
Description: Growth inhibition of human Hs 578T cells assessed as cell growth at 10 uM by SRB assay

OVCAR-3 [32] = experiment: cells; conditions: Homo sapiens
Description: Growth inhibition of human OVCAR-3 cells assessed as drug level required for 50% reduction in net protein increase by SRB assay relative to control

OVCAR-3 [33] = experiment: cells; conditions: Homo sapiens; remark: listed apart in the source
Description: Growth inhibition of human OVCAR-3 cells assessed as cell growth at 10 uM by SRB assay

NCI-H23 [34] = experiment: Cytotoxicity against human NCI-H23 cells by SRB assay; conditions: read-out: LC50 (the source's name)
RPMI-8226 [35] = experiment: cells; conditions: Homo sapiens; remark: listed apart in the source
Description: Growth inhibition of human RPMI8226 cells assessed as drug level required for 50% reduction in net protein increase by SRB assay relative to control

SNB-75 = experiment: cells; conditions: Homo sapiens
Description: Growth inhibition of human SNB75 cells assessed as cell growth at 10 uM by SRB assay

OVCAR-4 [36] = experiment: cells; conditions: Homo sapiens; remark: listed apart in the source
Description: Growth inhibition of human OVCAR4 cells assessed as drug level required for 50% reduction in net protein increase by SRB assay relative to control

SW-620 [37] = experiment: cells; conditions: Homo sapiens; remark: listed apart in the source
Description: Growth inhibition of human SW620 cells assessed as drug level required for 50% reduction in net protein increase by SRB assay relative to control

NCI/ADR-RES [38] = experiment: cells; conditions: Homo sapiens
Description: Growth inhibition of human NCI/ADR-RES cells assessed as drug level required for 50% reduction in net protein increase by SRB assay relative to control

786-0 [39] = experiment: cells; conditions: Homo sapiens; remark: listed apart in the source
Description: Growth inhibition of human 786-0 cells assessed as cell growth at 10 uM by SRB assay

HCT-116 [40] = experiment: cells; conditions: Homo sapiens
Description: Growth inhibition of human HCT116 cells assessed as drug level required for 50% reduction in net protein increase by SRB assay relative to control

SK-MEL-5 = experiment: cells; conditions: Homo sapiens
Description: Growth inhibition of human SK-MEL-5 cells assessed as cell growth at 10 uM by SRB assay

MDA-MB-468 = experiment: cells; conditions: Homo sapiens
Description: Growth inhibition of human MDA-MB-468 cells assessed as cell growth at 10 uM by SRB assay

DU-145 [41] = experiment: Cytotoxicity against human DU145 cells by SRB assay; conditions: read-out: LC50 (the source's name)
HCT-15 = experiment: cells; conditions: Homo sapiens
Description: Growth inhibition of human HCT15 cells assessed as drug level required for 50% reduction in net protein increase by SRB assay relative to control

SN12C [42] = experiment: cells; conditions: Homo sapiens; remark: listed apart in the source
Description: Growth inhibition of human SN12C cells assessed as drug level required for 50% reduction in net protein increase by SRB assay relative to control

NCI-H226 [43] = experiment: cells; conditions: Homo sapiens; remark: listed apart in the source
Description: Growth inhibition of human NCI-H226 cells assessed as cell growth at 10 uM by SRB assay

SK-OV-3 [44] = experiment: cells; conditions: Homo sapiens; remark: listed apart in the source
Description: Growth inhibition of human SKOV3 cells assessed as drug level required for 50% reduction in net protein increase by SRB assay relative to control

SF-295 [45] = experiment: Cytotoxicity against human SF295 cells by SRB assay; conditions: read-out: LC50 (the source's name)
A549 = experiment: cells; conditions: Homo sapiens
Description: Growth inhibition of human A549 cells assessed as drug level required for 50% reduction in net protein increase by SRB assay relative to control

OVCAR-4 [46] = experiment: Cytotoxicity against human OVCAR4 cells by SRB assay; conditions: read-out: LC50 (the source's name)
K562 = experiment: cells; conditions: Homo sapiens
Description: Growth inhibition of human K562 cells assessed as drug level required for 50% reduction in net protein increase by SRB assay relative to control

A498 [47] = experiment: cells; conditions: Homo sapiens; remark: listed apart in the source
Description: Growth inhibition of human A498 cells assessed as drug level required for 50% reduction in net protein increase by SRB assay relative to control

NCI/ADR-RES [48] = experiment: cells; conditions: Homo sapiens; remark: listed apart in the source
Description: Growth inhibition of human NCI/ADR-RES cells assessed as cell growth at 10 uM by SRB assay

SF-268 [49] = experiment: cells; conditions: Homo sapiens; remark: listed apart in the source
Description: Growth inhibition of human SF268 cells assessed as drug level required for 50% reduction in net protein increase by SRB assay relative to control

UACC-257 = experiment: cells; conditions: Homo sapiens
Description: Growth inhibition of human UACC257 cells assessed as cell growth at 10 uM by SRB assay

CCCCCCCCCCCCCCCCCCPCCCCCCCCCCCCCC (configuration not stated) [MONO(OCTADECYL(TETRADECYL)PHOSPHONIUM) MONO(HEXAFLUOROPHOSPHATE(V)) MONO(TETRAFLUOROBORATE)]
growth at 10 µM (DU-145 [1]): -54.3% | growth at 10 µM (MCF7 [2]): -40.8% | GI50 (HL-60(TB)): 39 nM | GI50 (NCI-H226 [3]): 189 nM | GI50 (SF-295 [4]): 251 nM | CC50 (SW-620 [5]): > 100000 nM | growth at 10 µM (PC-3): -32.7% | growth at 10 µM (SW-620 [6]): -43.8% | GI50 (M14 [7]): 87 nM | CC50 (KM12 [8]): > 100000 nM | CC50 (HT-29): > 100000 nM | growth at 10 µM (CCRF-CEM): 23.3% | GI50 (SNB-19): 97 nM | growth at 10 µM (UACC-62): -77.4% | CC50 (SK-OV-3 [9]): > 100000 nM | growth at 10 µM (SN12C [10]): -70.6% | growth at 10 µM (OVCAR-4 [11]): -71.3% | growth at 10 µM (M14 [12]): -67.2% | GI50 (OVCAR-5): 337 nM | GI50 (MCF7 [13]): 253 nM | growth at 10 µM (SK-OV-3 [14]): -68.7% | GI50 (KM12 [15]): 59 nM | GI50 (SR [16]): 107 nM | growth at 10 µM (SK-MEL-28): -69.3% | growth at 10 µM (RXF 393): -16.9% | CC50 (IGROV-1 [17]): > 100000 nM | growth at 10 µM (NCI-H23 [18]): -61% | CC50 (M14 [19]): > 100000 nM | CC50 (NCI-H460): > 100000 nM | CC50 (COLO 205): > 100000 nM | growth at 10 µM (SF-268 [20]): -49% | GI50 (IGROV-1 [21]): 316 nM | growth at 10 µM (SF-295 [22]): -50% | growth at 10 µM (HCC 2998): -76.4% | growth at 10 µM (SR [23]): 12.1% | CC50 (786-0 [24]): > 100000 nM | growth at 10 µM (MDA-MB-435): -59.3% | GI50 (NCI-H23 [25]): 236 nM | CC50 (HOP-62): > 100000 nM | GI50 (786-0 [26]): 211 nM | CC50 (HCT-116 [27]): > 100000 nM | growth at 10 µM (RPMI-8226 [28]): 27.2% | growth at 10 µM (SF-539): -83.2% | growth at 10 µM (LOX IMVI): 0.43% | growth at 10 µM (A498 [29]): -75.6% | growth at 10 µM (cells [30]): -70.2% | growth at 10 µM (cells [31]): -44.2% | GI50 (OVCAR-3 [32]): 118 nM | growth at 10 µM (OVCAR-3 [33]): -51% | CC50 (NCI-H23 [34]): > 100000 nM | GI50 (RPMI-8226 [35]): 16 nM | growth at 10 µM (SNB-75): -85.2% | GI50 (OVCAR-4 [36]): 125 nM | GI50 (SW-620 [37]): 72 nM | GI50 (NCI/ADR-RES [38]): 947 nM | growth at 10 µM (786-0 [39]): -74% | GI50 (HCT-116 [40]): 84 nM | growth at 10 µM (SK-MEL-5): -69.2% | growth at 10 µM (MDA-MB-468): -62% | CC50 (DU-145 [41]): > 100000 nM | GI50 (HCT-15): 339 nM | GI50 (SN12C [42]): 62 nM | growth at 10 µM (NCI-H226 [43]): -68.1% | GI50 (SK-OV-3 [44]): 331 nM | CC50 (SF-295 [45]): > 100000 nM | GI50 (A549): 391 nM | CC50 (OVCAR-4 [46]): > 100000 nM | GI50 (K562): 38 nM | GI50 (A498 [47]): 472 nM | growth at 10 µM (NCI/ADR-RES [48]): -77.3% | GI50 (SF-268 [49]): 88 nM | growth at 10 µM (UACC-257): -59%

Source: ChEMBL document CHEMBL1153480, “Study on the potential anti-cancer activity of phosphonium and ammonium-based ionic liquids” (2009)
